ChEMBL document CHEMBL5154808, “Novel β-Hairpin Antimicrobial Peptides Containing the β-Turn Sequence of -RRRF- Having High Cell Selectivity and Low Incidence of Drug Resistance” (J Med Chem, 2022)
Values after ≈ are worked out from the molar mass of the structure shown. Active and inactive are the calls of the source. No cut-off for these calls is given here. Where a SMILES comes first, the peptide text is derived from it.

How the values were obtained:
Staphylococcus aureus [1] = assay: Antimicrobial activity against Staphylococcus aureus ATCC 25923 assessed as reduction of bacterial growth incubated for 18 hrs by CLSI protocol based broth microdilution method; type: functional
Bacillus subtilis = assay: Antimicrobial activity against Bacillus subtilis ATCC 23857 assessed as reduction of bacterial growth incubated for 18 hrs by CLSI protocol based broth microdilution method; type: functional
[2] = system: Staphylococcus epidermidis; assay: Antimicrobial activity against Staphylococcus epidermidis ATCC 12228 assessed as reduction of bacterial growth incubated for 18 hrs by CLSI protocol based broth microdilution method; type: functional
Enterococcus faecalis = assay: Antimicrobial activity against Enterococcus faecalis ATCC 29212 assessed as reduction of bacterial growth incubated for 18 hrs by CLSI protocol based broth microdilution method; type: functional
Klebsiella pneumoniae = assay: Antimicrobial activity against Klebsiella pneumoniae ATCC 700603 assessed as reduction of bacterial growth incubated for 18 hrs by CLSI protocol based broth microdilution method; type: functional
Escherichia coli [3] = assay: Antimicrobial activity against Escherichia coli ATCC 25922 assessed as reduction of bacterial growth incubated for 18 hrs by CLSI protocol based broth microdilution method; type: functional
Pseudomonas aeruginosa = assay: Antimicrobial activity against Pseudomonas aeruginosa ATCC 27853 assessed as reduction of bacterial growth incubated for 18 hrs by CLSI protocol based broth microdilution method; type: functional
Erythrocyte = assay: Hemolytic activity in mouse red blood cells assessed as release of hemoglobin incubated for 1 hr by microplate reader method; type: toxicity, cell-based
[4] = Cytotoxicity against human HK-2 cells assessed as reduction in cell viability incubated for 1 hr by resazurin based microplate reader method; type: toxicity
Staphylococcus aureus [5] = assay: Induction of drug resistance in Staphylococcus aureus ATCC 25923 assessed as fold increase in MIC after 5 passages by CLSI protocol based broth microdilution method; type: functional; conditions: time 18.0 hrs
Escherichia coli [6] = assay: Induction of drug resistance in Escherichia coli ATCC 25922 assessed as increase in MIC measured after 20 passages by CLSI protocol based broth microdilution method; type: functional; conditions: time 18.0 hrs
Staphylococcus aureus [7] = assay: Antimicrobial activity against kanamycin-resistant Staphylococcus aureus ATCC 25923; type: functional
Escherichia coli [8] = assay: Antimicrobial activity against kanamycin-resistant Escherichia coli ATCC 25922; type: functional
Staphylococcus aureus [9] = assay: Induction of drug resistance in Staphylococcus aureus ATCC 25923 assessed as increase in MIC after 10 passages by CLSI protocol based broth microdilution method; type: functional

CC[C@H](C)[C@H](N)C(=O)N[C@@H](CCCNC(=N)N)C(=O)N[C@H](C(=O)N[C@@H](CCCNC(=N)N)C(=O)N[C@@H](CS)C(=O)N[C@@H](CCCNC(=N)N)C(=O)N[C@@H](CCCNC(=N)N)C(=O)N[C@@H](CCCNC(=N)N)C(=O)N[C@@H](Cc1ccccc1)C(=O)N[C@@H](CS)C(=O)N[C@@H](CCCNC(=N)N)C(=O)N[C@H](C(=O)N[C@@H](CCCNC(=N)N)C(=O)N[C@H](C(N)=O)[C@@H](C)CC)[C@@H](C)CC)[C@@H](C)CC (H-IRIRCRRRFCRIRI-NH2)
MIC (Staphylococcus aureus [1]): 8 µM (≈ 15.3 µg/mL)
MIC (Bacillus subtilis): 4 µM (≈ 7.67 µg/mL)
MIC [2]: 4 µM (≈ 7.67 µg/mL)
MIC (Enterococcus faecalis): 16 µM (≈ 30.7 µg/mL)
MIC (Klebsiella pneumoniae): 8 µM (≈ 15.3 µg/mL)
MIC (Escherichia coli [3]): 8 µM (≈ 15.3 µg/mL)
MIC (Pseudomonas aeruginosa): 4 µM (≈ 7.67 µg/mL)
HC10 (Erythrocyte): > 256 µM
CC50 at 1 h [4]: 37.1 µM

CC(C)C[C@H](NC(=O)[C@H](CCCNC(=N)N)NC(=O)CNC(=O)CNC(=O)[C@@H](N)CCCNC(=N)N)C(=O)N[C@@H](CS)C(=O)N[C@@H](Cc1ccc(O)cc1)C(=O)N[C@@H](CS)C(=O)N[C@@H](CCCNC(=N)N)C(=O)N[C@@H](CCCNC(=N)N)C(=O)N[C@@H](CCCNC(=N)N)C(=O)N[C@@H](Cc1ccccc1)C(=O)N[C@@H](CS)C(=O)N[C@H](C(=O)N[C@@H](CS)C(=O)N[C@H](C(=O)NCC(=O)N[C@@H](CCCNC(=N)N)C(N)=O)C(C)C)C(C)C (H-RGGRLCYCRRRFCVCVGR-NH2)
MIC (Staphylococcus aureus [1]): 8 µM (≈ 17.3 µg/mL)
MIC (Bacillus subtilis): 2 µM (≈ 4.32 µg/mL)
MIC [2]: 4 µM (≈ 8.64 µg/mL)
MIC (Enterococcus faecalis): 8 µM (≈ 17.3 µg/mL)
MIC (Klebsiella pneumoniae): 8 µM (≈ 17.3 µg/mL)
MIC (Escherichia coli [3]): 8 µM (≈ 17.3 µg/mL)
MIC (Pseudomonas aeruginosa): 4 µM (≈ 8.64 µg/mL)
HC10 (Erythrocyte): 20 µM
CC50 at 1 h [4]: 14.2 µM

NC[C@H]1O[C@H](O[C@H]2[C@H](O)[C@@H](O[C@H]3O[C@H](CO)[C@@H](O)[C@H](N)[C@H]3O)[C@H](N)C[C@@H]2N)[C@H](O)[C@@H](O)[C@@H]1O [KANAMYCIN]
MIC (Staphylococcus aureus [1]): < 1 µM
MIC (Bacillus subtilis): < 1 µM
MIC [2]: > 128 µM
MIC (Enterococcus faecalis): 16 µM (≈ 7.75 µg/mL)
MIC (Klebsiella pneumoniae): 64 µM (≈ 31 µg/mL)
MIC (Escherichia coli [3]): 4 µM (≈ 1.94 µg/mL)
MIC (Pseudomonas aeruginosa): > 128 µM
fold change (FC) (Staphylococcus aureus [5]): 64
Activity (Escherichia coli [6]): Active
MIC (Staphylococcus aureus [7]): 1020 µM (≈ 496 µg/mL)
MIC (Escherichia coli [8]): 1020 µM (≈ 496 µg/mL)

CC[C@H](C)[C@H](NC(=O)CN)C(=O)NCC(=O)N[C@@H](C)C(=O)N[C@H](C(=O)N[C@@H](CC(C)C)C(=O)N[C@@H](CCCCN)C(=O)N[C@H](C(=O)N[C@@H](CC(C)C)C(=O)N[C@H](C(=O)N[C@H](C(=O)NCC(=O)N[C@@H](CC(C)C)C(=O)N1CCC[C@H]1C(=O)N[C@@H](C)C(=O)N[C@@H](CC(C)C)C(=O)N[C@H](C(=O)N[C@@H](CO)C(=O)N[C@@H](Cc1c[nH]c2ccccc12)C(=O)N[C@H](C(=O)N[C@@H](CCCCN)C(=O)N[C@@H](CCCNC(=N)N)C(=O)N[C@@H](CCCCN)C(=O)N[C@@H](CCCNC(=N)N)C(=O)N[C@@H](CCC(N)=O)C(=O)N[C@@H](CCC(N)=O)C(N)=O)[C@@H](C)CC)[C@@H](C)CC)[C@@H](C)O)[C@@H](C)O)C(C)C)C(C)C [MELITTIN]
MIC (Enterococcus faecalis): 2 µM (≈ 5.69 µg/mL)
MIC (Klebsiella pneumoniae): 16 µM (≈ 45.5 µg/mL)

C[C@@H](O)[C@H]1C(=O)N2C(C(=O)O)=C(S[C@@H]3CN[C@H](C(=O)N(C)C)C3)[C@H](C)[C@H]12 [MEROPENEM]
MIC (Staphylococcus aureus [1]): < 1 µM
MIC (Bacillus subtilis): < 1 µM
MIC [2]: < 1 µM
MIC (Enterococcus faecalis): 16 µM (≈ 6.14 µg/mL)
MIC (Klebsiella pneumoniae): < 1 µM
MIC (Escherichia coli [3]): < 1 µM
MIC (Pseudomonas aeruginosa): 2 µM (≈ 0.767 µg/mL)
Activity (Staphylococcus aureus [9]): Active
Activity (Escherichia coli [6]): Active

CO[C@H]1/C=C/O[C@@]2(C)Oc3c(C)c(O)c4c(O)c(c(/C=N/N5CCN(C)CC5)c(O)c4c3C2=O)NC(=O)/C(C)=C\C=C\[C@H](C)[C@H](O)[C@@H](C)[C@@H](O)[C@@H](C)[C@H](OC(C)=O)[C@@H]1C [RIFAMPIN]
MIC (Staphylococcus aureus [1]): < 1 µM
MIC (Bacillus subtilis): < 1 µM
MIC [2]: < 1 µM
MIC (Enterococcus faecalis): < 1 µM
MIC (Klebsiella pneumoniae): 32 µM (≈ 26.3 µg/mL)
MIC (Escherichia coli [3]): 4 µM (≈ 3.29 µg/mL)
MIC (Pseudomonas aeruginosa): 32 µM (≈ 26.3 µg/mL)
fold change (FC) (Staphylococcus aureus [5]): 64
Activity (Escherichia coli [6]): Active

H-ARARRRRFRARA-NH2
MIC (Staphylococcus aureus [1]): 128 µM
MIC (Bacillus subtilis): 64 µM
MIC [2]: 128 µM
MIC (Enterococcus faecalis): > 128 µM
MIC (Klebsiella pneumoniae): > 128 µM
MIC (Escherichia coli [3]): > 128 µM
MIC (Pseudomonas aeruginosa): > 128 µM
HC10 (Erythrocyte): > 256 µM
CC50 at 1 h [4]: > 128 µM

H-FRFRFRRRRFRFRFRF-NH2
MIC (Staphylococcus aureus [1]): 8 µM
MIC (Bacillus subtilis): 4 µM
MIC [2]: 2 µM
MIC (Enterococcus faecalis): 8 µM
MIC (Klebsiella pneumoniae): 8 µM
MIC (Escherichia coli [3]): 8 µM
MIC (Pseudomonas aeruginosa): 8 µM
HC10 (Erythrocyte): > 256 µM
CC50 at 1 h [4]: 10.3 µM

H-FRFRRRRFRFRF-NH2
MIC (Staphylococcus aureus [1]): 4 µM
MIC (Bacillus subtilis): 2 µM
MIC [2]: 4 µM
MIC (Enterococcus faecalis): 16 µM
MIC (Klebsiella pneumoniae): 8 µM
MIC (Escherichia coli [3]): 8 µM
MIC (Pseudomonas aeruginosa): 8 µM
HC10 (Erythrocyte): 237 µM
CC50 at 1 h [4]: 42 µM

H-IKIKRRRFKIKI-NH2
MIC (Staphylococcus aureus [1]): 32 µM
MIC (Bacillus subtilis): 4 µM
MIC [2]: 8 µM
MIC (Enterococcus faecalis): 64 µM
MIC (Klebsiella pneumoniae): 64 µM
MIC (Escherichia coli [3]): 64 µM
MIC (Pseudomonas aeruginosa): 16 µM
HC10 (Erythrocyte): > 256 µM
CC50 at 1 h [4]: > 128 µM

H-IRIRIRRRRFRIRIRI-NH2
MIC (Staphylococcus aureus [1]): 8 µM
MIC (Bacillus subtilis): 2 µM
MIC [2]: 2 µM
MIC (Enterococcus faecalis): 4 µM
MIC (Klebsiella pneumoniae): 8 µM
MIC (Escherichia coli [3]): 8 µM
MIC (Pseudomonas aeruginosa): 4 µM
HC10 (Erythrocyte): 56 µM
CC50 at 1 h [4]: 12.3 µM

H-IRIRRRRFRIRI-NH2
MIC (Staphylococcus aureus [1]): 4 µM
MIC (Bacillus subtilis): 4 µM
MIC [2]: 4 µM
MIC (Enterococcus faecalis): 16 µM
MIC (Klebsiella pneumoniae): 16 µM
MIC (Escherichia coli [3]): 16 µM
MIC (Pseudomonas aeruginosa): 4 µM
HC10 (Erythrocyte): > 256 µM
CC50 at 1 h [4]: 128 µM

H-LKLKRRRFKLKL-NH2
MIC (Staphylococcus aureus [1]): 32 µM
MIC (Bacillus subtilis): 4 µM
MIC [2]: 8 µM
MIC (Enterococcus faecalis): 128 µM
MIC (Klebsiella pneumoniae): 128 µM
MIC (Escherichia coli [3]): 32 µM
MIC (Pseudomonas aeruginosa): 64 µM
HC10 (Erythrocyte): > 256 µM
CC50 at 1 h [4]: > 128 µM

H-RIRIRRRFIRIR-NH2
MIC (Staphylococcus aureus [1]): 8 µM
MIC (Bacillus subtilis): 4 µM
MIC [2]: 4 µM
MIC (Enterococcus faecalis): 32 µM
MIC (Klebsiella pneumoniae): 64 µM
MIC (Escherichia coli [3]): 8 µM
MIC (Pseudomonas aeruginosa): 16 µM
HC10 (Erythrocyte): > 256 µM
CC50 at 1 h [4]: > 128 µM

H-VRVRRRRFRVRV-NH2
MIC (Staphylococcus aureus [1]): 16 µM
MIC (Bacillus subtilis): 4 µM
MIC [2]: 8 µM
MIC (Enterococcus faecalis): > 128 µM
MIC (Klebsiella pneumoniae): 64 µM
MIC (Escherichia coli [3]): 32 µM
MIC (Pseudomonas aeruginosa): 64 µM
HC10 (Erythrocyte): > 256 µM
CC50 at 1 h [4]: > 128 µM

H-WKWKRRRFKWKW-NH2
MIC (Staphylococcus aureus [1]): 4 µM
MIC (Bacillus subtilis): 2 µM
MIC [2]: 4 µM
MIC (Enterococcus faecalis): 16 µM
MIC (Klebsiella pneumoniae): 8 µM
MIC (Escherichia coli [3]): 4 µM
MIC (Pseudomonas aeruginosa): 4 µM
HC10 (Erythrocyte): > 256 µM
CC50 at 1 h [4]: 120 µM

H-WKWKWKRRRFKWKWKW-NH2
MIC (Staphylococcus aureus [1]): 8 µM
MIC (Bacillus subtilis): 4 µM
MIC [2]: 4 µM
MIC (Enterococcus faecalis): 8 µM
MIC (Klebsiella pneumoniae): 8 µM
MIC (Escherichia coli [3]): 8 µM
MIC (Pseudomonas aeruginosa): 4 µM
HC10 (Erythrocyte): > 256 µM
CC50 at 1 h [4]: 10.4 µM

H-WRWRRRRFRWRW-NH2
MIC (Staphylococcus aureus [1]): 8 µM
MIC (Bacillus subtilis): 2 µM
MIC [2]: 4 µM
MIC (Enterococcus faecalis): 8 µM
MIC (Klebsiella pneumoniae): 8 µM
MIC (Escherichia coli [3]): 8 µM
MIC (Pseudomonas aeruginosa): 8 µM
HC10 (Erythrocyte): > 256 µM
CC50 at 1 h [4]: 8.7 µM
